We go through nine molecules from US7919634B2, “Fused thiophenes, articles, and methods thereof” (Corning Incorporated, priority 2009, dated 2011).

A short description of the series: Solubility of selected FT4 and FT5 compounds in organic solvents (10 mg compound, stepwise 5 mL solvent additions, ultrasonic bath). In kind it is physicochemical. As to conditions: thermodynamic from solid. As for the experimental part:
Solubility of Selected FT4 And FT5 Compounds Table 1 provides a solubility comparison of some α-, α′-unsubstituted, β-, β′-alkyl substituted FT4 (and FT5), with some α-, α′-substituted, β-, β′-alkyl substituted FT4 (and FT5) compounds. General Procedure: 10 mg of a FT4 or FT5 compound was mixed with 5.0 mL of a specified solvent and then sealed in a screw-top glass vial. The resulting mixture was kept in an ultrasonic bath for 30 minutes at ambient temperature and then kept quiescent for 30 minutes to check whether a clear solution formed. If the mixture was still not clear after these 60 minutes, an additional 5.0 mL of the same solvent was added to the vial and the 60 minute mixing and standing procedure was repeated up to a total of 20 mL of solvent.

Where [1] appears, read: CH2Cl2, organic solvent or mixture, 10 mg compound in 5 mL CH2Cl2, ambient temperature, read-out: Solubility CH2Cl2.
[2] abbreviates: hexane, organic solvent or mixture, 10 mg compound in 5 mL hexane, ambient temperature, read-out: Solubility hexane.
[3] abbreviates: toluene, organic solvent or mixture, 10 mg compound in 5 mL toluene, ambient temperature, read-out: Solubility toluene.
Setting [4] is: CH2Cl2, organic solvent or mixture, 10 mg compound in 10 mL CH2Cl2, ambient temperature, read-out: Solubility CH2Cl2.
The mark [5] stands for this setting: CH2Cl2, organic solvent or mixture, 10 mg compound in 15 mL CH2Cl2, ambient temperature, read-out: Solubility CH2Cl2.
The mark [6] stands for this setting: CH2Cl2, organic solvent or mixture, 10 mg compound in 20 mL CH2Cl2, ambient temperature, read-out: Solubility CH2Cl2.
[7] abbreviates: hexane, organic solvent or mixture, 10 mg compound in 10 mL hexane, ambient temperature, read-out: Solubility hexane.
Setting [8] is: hexane, organic solvent or mixture, 10 mg compound in 15 mL hexane, ambient temperature, read-out: Solubility hexane.
[9] abbreviates: hexane, organic solvent or mixture, 10 mg compound in 20 mL hexane, ambient temperature, read-out: Solubility hexane.
Setting [10] is: toluene, organic solvent or mixture, 10 mg compound in 10 mL toluene, ambient temperature, read-out: Solubility toluene.
Where [11] appears, read: toluene, organic solvent or mixture, 10 mg compound in 15 mL toluene, ambient temperature, read-out: Solubility toluene.
Setting [12] is: toluene, organic solvent or mixture, 10 mg compound in 20 mL toluene, ambient temperature, read-out: Solubility toluene.

Like-named read-outs stand apart in the source and are kept apart here.

As to `CCCCCCCCCCCCCc1c(-c2ccccc2)sc2c1sc1c2sc2c3sc(-c4ccccc4)c(CCCCCCCCCCCCC)c3sc21`, the solubility at 60 min by setting is: under setting [1], over 500 µg/mL; under setting [2], over 500 µg/mL; under setting [3], over 500 µg/mL.
For the molecule `CCCCCCCCCCCCCCCCCc1c(-c2cccs2)sc2c1sc1c3sc(-c4cccs4)c(CCCCCCCCCCCCCCCCC)c3sc21`, the solubility at 60 min is under 2000 µg/mL under setting [1]; under 2000 µg/mL under setting [4]; under 2000 µg/mL under setting [5]; over 500 µg/mL under setting [6]; under 2000 µg/mL under setting [2]; under 2000 µg/mL under setting [7]. The solubility at 60 min was under 2000 µg/mL under setting [8]; under 2000 µg/mL under setting [9]; under 2000 µg/mL under setting [3]; under 2000 µg/mL under setting [10]; over 500 µg/mL under setting [11]; over 500 µg/mL under setting [12].
Turning to `CCCCCCCCCCCCCCCCCc1c(-c2ccccc2)sc2c1sc1c3sc(-c4ccccc4)c(CCCCCCCCCCCCCCCCC)c3sc21`, the solubility at 60 min was under 2000 µg/mL under setting [1]; under 2000 µg/mL under setting [4]; over 500 µg/mL under setting [5]; under 2000 µg/mL under setting [2]; under 2000 µg/mL under setting [7]; under 2000 µg/mL under setting [8]. Moreover, the solubility at 60 min under setting [9] was under 2000 µg/mL, the solubility at 60 min under setting [3] was over 500 µg/mL and the solubility at 60 min under setting [10] was over 500 µg/mL.
On to `CCCCCCCCCCCCCc1c(-c2cccs2)sc2c1sc1c3sc(-c4cccs4)c(CCCCCCCCCCCCC)c3sc21`, for which the solubility at 60 min runs as follows: under setting [1], over 500 µg/mL; under setting [2], under 2000 µg/mL; under setting [7], under 2000 µg/mL; under setting [8], under 2000 µg/mL; under setting [9], under 2000 µg/mL; under setting [3], over 500 µg/mL.
`CCCCCCCCCCCCCCCCCc1csc2c1sc1c3scc(CCCCCCCCCCCCCCCCC)c3sc21`: the solubility at 60 min reads like this: under setting [1], under 2000 µg/mL; under setting [4], under 2000 µg/mL; under setting [5], under 2000 µg/mL; under setting [6], under 2000 µg/mL; under setting [2], under 2000 µg/mL; under setting [7], under 2000 µg/mL. Besides, the solubility at 60 min by setting is: under setting [8], under 2000 µg/mL; under setting [9], under 2000 µg/mL; under setting [3], under 2000 µg/mL; under setting [10], under 2000 µg/mL; under setting [11], under 2000 µg/mL; under setting [12], under 2000 µg/mL.
In the case of `CCCCCCCCCCCCCc1csc2c1sc1c2sc2c3scc(CCCCCCCCCCCCC)c3sc21`, the solubility at 60 min was under 2000 µg/mL under setting [1]; over 500 µg/mL under setting [4]; under 2000 µg/mL under setting [2]; over 500 µg/mL under setting [7]; over 500 µg/mL under setting [3].
Consider `CCCCCCCCCCCCCc1csc2c1sc1c3scc(CCCCCCCCCCCCC)c3sc21`, for which the solubility at 60 min runs as follows: under setting [1], under 2000 µg/mL; under setting [4], over 500 µg/mL; under setting [2], under 2000 µg/mL; under setting [7], under 2000 µg/mL; under setting [8], under 2000 µg/mL; under setting [9], under 2000 µg/mL. Further, the solubility at 60 min is under 2000 µg/mL under setting [3] and over 500 µg/mL under setting [10].
On to `CCCCCCCCCCCCCc1c(-c2cccs2)sc2c1sc1c2sc2c3sc(-c4cccs4)c(CCCCCCCCCCCCC)c3sc21`, for which the solubility at 60 min reads like this: under setting [1], over 500 µg/mL; under setting [2], under 2000 µg/mL; under setting [7], under 2000 µg/mL; under setting [8], under 2000 µg/mL; under setting [9], under 2000 µg/mL; under setting [3], over 500 µg/mL.
Regarding `CCCCCCCCCCCCCc1c(-c2ccccc2)sc2c1sc1c3sc(-c4ccccc4)c(CCCCCCCCCCCCC)c3sc21`, the solubility at 60 min by setting is: under setting [1], under 2000 µg/mL; under setting [4], over 500 µg/mL; under setting [2], under 2000 µg/mL; under setting [7], under 2000 µg/mL; under setting [8], under 2000 µg/mL; under setting [9], over 500 µg/mL. The solubility at 60 min under setting [3] was over 500 µg/mL.
